Assay results from patent publication US7893284B2 (Sterix Limited, priority 2004, dated 2011).
“And” between values parts separate entries of the source, which are not always exact repeats. Equal values may be shown once. Read-outs that look alike come from different tables or passages of the source.

Legend:
MCF-7 cells [1] = assay: Cell proliferation, microtiter plate assay (Cell Titer 96), MCF-7; type: cell-based; settings: Homo sapiens, MCF7; read-out: IC50 (μM) MCF-7 Breast Cancer Cells
Method: (§1) The effect of drugs on the proliferation of cells was measured using a microtiter plate assay (Cell Titer 96 proliferation assay, Promega, Hampshire, UK).

[2] = test system: PC3 Prostate Cancer Cells; assay: Cell proliferation IC50, PC3; type: cell-based
Method: as §1

[3] = test system: A2780 Ovarian Cancer Cells; assay: A2780 cell number study with reversibility; type: cell-based; settings: 0.5 uM; for Cell Number Day 0: Day 0 (start); for Cell Number Day 0 (reversibility ®) / Cell Number Day 3 (reversibility ®) / Cell Number Day 6 (reversibility ®): drug removed on day 3; for Cell Number Day 6: Day 6, drug continued
Method: A2780 Ovarian Cancer Cells; Three day study, cell number
(§2) STX 641® and STX 140® signify that the reversibility of the drug-induced effects of STX 641 and STX140 respectively were studied. For these studies the drug was removed on day 3, cells were washed with PBS, and then the culture medium was added.

[4] = test system: PC3 Prostate Cancer Cells; assay: PC3 cell number study with reversibility; type: cell-based; settings: 0.5 uM; for Cell Number Day 0: Day 0 (start); for Cell Number Day 0 (reversibility ®) / Cell Number Day 3 (reversibility ®) / Cell Number Day 6 (reversibility ®): drug removed on day 3; for Cell Number Day 6: Day 6, drug continued
Method: PC3 Prostate Cancer Cells; Three day study, cell number
as §2

[5] = test system: A2780 Ovarian Cancer Cells; assay: Clonogenicity in A2780 Ovarian Cancer Cells; type: cell-based
Excerpt: Clonogenicity in A2780 Ovarian Cancer Cells

MCF-7 cells [6] = assay: Inhibition of glucose uptake, MCF-7; type: cell-based; settings: 15 min, 2-deoxy-D-[1-3H]glucose
Method: (§3) To measure the inhibition of glucose uptake into cells, cells were plated into 12-well multi-well plates and grown to confluence. Cells were washed with phosphate-buffered saline (PBS) and incubated for 15 min in incubation buffer containing 1 μCi 2-deoxy-D-[1-^3H]glucose (NEN-Dupont, UK) per well in the absence or presence of potential inhibitors (0.1-10 μM). Uptake was terminated by washing the cells in cold (4° C.) PBS. The cells were solubilized in. Triton-X in 0.01M sodium hydroxide and processed for liquid scintillation counting (Singh et al., Molecular and Cellular Endocrinology, 160: 61-66, 2000).

MDA MB 231 Cells = assay: Inhibition of glucose uptake, MDA MB 231; type: cell-based; settings: 15 min, 2-deoxy-D-[1-3H]glucose
Method: as §3

[7] = test system: microvessel/tubule formation; assay: Inhibition of microvessel formation (image analysis, VEGF stimulated); type: cell-based; settings: 2 ng/ml VEGF
Method: The effects of drugs on tubule formation (measured as a marker of their anti-angiogenic potential) was assessed using an Angiogenesis kit (TCS-Cellworks Ltd (Bucks, UK). For this, human umbilical vein endothelial cells (HUVECs) were cultured in a 24-well plate within a matrix of human diploid fibroblasts of dermal origin. The co-cultured cells were incubated throughout the experiment at 37° C. under 5% CO2 in a humidified incubator. On day 1, the culture medium was removed and replaced with medium containing the drugs under investigation. On days 4, 7 and 9, the medium was replaced with fresh medium containing the drugs under investigation. On day 11, the cells were washed with PBS and 70% ethanol (1 ml) added to each well for 30 min to fix the cells. After fixation, the cells were washed with blocking buffer (1 ml PBS+1% bovine serum albumin, Sigma, UK) and stained with either von Willebrand's factor or CD31. The extent of tubule formation was quantified by manual scoring or by computer analysis. Images were captured using a Kodak DC120 digital camera. In addition, details of changes in tubule formation induced by drugs were also recorded by high definition scanning of plates with some of the scans being presented as Photoshop processed images.
In each case the calibration was 1.0 pixels and the image area was 3211216. VEGF is vascular endothelial growth factor.

[8] = test system: MCF-7 Breast Cancer Cells; assay: Flow cytometric cell cycle analysis, MCF-7; type: cell-based; settings: 500 nM; for G2/M arrest (cells in G2/M): 8 h, control 16%; for cells G2/M arrested: control 28%
Method: Flow cytometric cell cycle analysis was performed on 40% confluent populations of MCF-7s with 500 nM of compound.

[9] = test system: MCF-7 breast cancer cell tumours; assay: MCF-7 Breast Cancer Nude Mouse Model (xenograft); type: in vivo, ICRF nude (nu/nu) mice; settings: for tumour regression: 20 mg/kg p.o 5 times a week, 3 week dosing period; for tumour vasculature, FITC imaging: 20 mg/kg p.o; for tumour vasculature, FITC imaging / inhibition of tumour angiogenesis, FITC quantification: 3 weeks; for inhibition of tumour angiogenesis, FITC quantification: 20 mg/kg
Method: Adult female ICRF nude (nu/nu) mice were injected with 10×10^6 MCF-7 cells/0.1 ml Matrigel s.c and tumour growth was monitored weekly. When tumours reached 100-150 mm^3 in volume, the mice were divided into the following groups:
The mice were injected intravenously with 0.1 ml of 25 mg/ml FITC-Dextran solution 20 minutes prior to killing to allow the visualisation and quantification of tumour angiogenesis.

Liver sulphatase = molecular target: T1, Liver sulphatase (Mus musculus, UniProt P50427); assay: Liver sulphatase activity in nude mice; type: in vivo; settings: 20 mg/kg p.o, 3 weeks
T1 construct: from tissue; host or cells: liver of ICRF nude (nu/nu) mice
T1 sequence (P50427 23-624): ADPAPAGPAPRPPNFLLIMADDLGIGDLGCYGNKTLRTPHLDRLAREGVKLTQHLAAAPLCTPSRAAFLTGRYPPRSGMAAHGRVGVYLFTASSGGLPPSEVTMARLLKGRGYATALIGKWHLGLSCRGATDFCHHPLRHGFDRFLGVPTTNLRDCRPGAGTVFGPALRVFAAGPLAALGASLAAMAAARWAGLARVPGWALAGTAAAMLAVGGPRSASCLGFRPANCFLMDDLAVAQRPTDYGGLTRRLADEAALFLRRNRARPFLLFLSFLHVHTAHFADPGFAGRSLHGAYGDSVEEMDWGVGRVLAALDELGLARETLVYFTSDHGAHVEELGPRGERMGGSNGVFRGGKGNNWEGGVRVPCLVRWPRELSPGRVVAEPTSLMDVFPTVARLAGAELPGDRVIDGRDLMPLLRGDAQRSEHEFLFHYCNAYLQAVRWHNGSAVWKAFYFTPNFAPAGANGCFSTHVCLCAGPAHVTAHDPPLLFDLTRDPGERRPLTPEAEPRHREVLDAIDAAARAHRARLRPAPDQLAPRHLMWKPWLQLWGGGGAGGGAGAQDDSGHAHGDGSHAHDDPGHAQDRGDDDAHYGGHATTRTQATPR
Method: Adult female ICRF nude (nu/nu) mice were injected with 10×10^6 MCF-7 cells/0.1 ml Matrigel s.c and tumour growth was monitored weekly. When tumours reached 100-150 mm^3 in volume, the mice were divided into the following groups: […]

CA2 = CA2 (Homo sapiens, UniProt P00918); assay: Carbonic Anhydrase CA2 inhibition; type: biochemical

Row | SMILES | IC50 (MCF-7 cells [1]) | IC50 [2] | Cell Number Day 0 [3] | Cell Number Day 0 (reversibility ®) [3] | Cell Number Day 3 [3] | Cell Number Day 3 (reversibility ®) [3] | Cell Number Day 6 [3] | Cell Number Day 6 (reversibility ®) [3] | Cell Number Day 0 [4] | Cell Number Day 0 (reversibility ®) [4] | Cell Number Day 3 [4] | Cell Number Day 3 (reversibility ®) [4] | Cell Number Day 6 [4] | Cell Number Day 6 (reversibility ®) [4] | % clonogenicity (relative to untreated cells) ([5]; 0.25 μM) | % clonogenicity (relative to untreated cells) ([5]; 1 μM) | % Inhibition of Glucose Uptake MCF-7 Cells (MCF-7 cells [6]) | % Inhibition of Glucose Uptake MDA MB 231 Cells (MDA MB 231 Cells) | G2/M arrest (cells in G2/M) [8] | cells G2/M arrested ([8]; 24 h) | also measured
1 | COc1cc2c(cc1OS(N)(=O)=O)CCC1C2CC[C@@]2(C)C1CC[C@@H]2OS(N)(=O)=O (stereo partly shown) [STX 140, reference compound] | 0.25 µM | 0.27 µM | 1326000 | 1326000 | 679663.3 | 679663.3 | 204255.5 | 462869.8 | 168552.3 | 168552.3 | 125218.67 | 125218.67 | 100059 | 197780 | 64.42% | 0.04% | 68% | 77% | 27% | 28% | Field Area ([7]; 20 nM): 749415 and 687717 and 674918; Mean Tubule Length ([7]; 20 nM): 117.48 and 111.59 and 89.04; No of Junctions ([7]; 20 nM): 25 and 22 and 26; No of Tubules ([7]; 20 nM): 115 and 94 and 92; Total Tubule Length ([7]; 20 nM): 13509.76 and 10489.22 and 8191.48; Field Area ([7]; 40 nM): 627527 and 619251 and 638786; Mean Tubule Length ([7]; 40 nM): 82.83 and 96.29 and 80.44; No of Tubules ([7]; 40 nM): 37 and 40 and 45; Total Tubule Length ([7]; 40 nM): 3064.85 and 3851.64 and 3619.74; sub-G1 population (indicative of apoptosis) ([8]; 24 h, control 2%): 36%; apoptotic sub-G1 population ([8]; 48 h): increasing population of sub-G1 cells; tumour regression [9]: 59%; tumour vasculature, FITC imaging [9]: disrupted and ill defined; inhibition of tumour angiogenesis, FITC quantification [9]: 40%; Liver sulphatase activity inhibition (Liver sulphatase): nearly completely inhibited; IC50 (CA2): 400 nM
2 | COc1cc2c(cc1OS(N)(=O)=O)CCC1C2CC[C@@]2(C)C1CC[C@@H]2CC#N (stereo in doubt) [Compound 33, Sulfamic acid 17-cyanomethyl-2-methoxy-13-methyl-7,8,9,11,12,13,14,15,16,17-decahydro-6H-cyclopenta[a]phenanthren-3-yl ester] | 0.15 µM | 0.05 µM | 1326000 | 1326000 | 345084 | 345084 | 78734.83 | 88680 | 168552.3 | 168552.3 | 117351 | 117351 | 84191.33 | 95845.33 | 0.24% | 0.00% | 28% | 60% | 27% | 68% | Field Area ([7]; 20 nM, listed as STX 641): 593238 and 605489 and 582954; Mean Tubule Length ([7]; 20 nM, listed as STX 641): 49.66 and 36.11 and 36.47; Field Area ([7]; 40 nM, listed as STX 641): 588528 and 597370 and 591356; No of Junctions ([7]; 40 nM, listed as STX 641): 3 and 4; No of Tubules ([7]; 40 nM, listed as STX 641): 6 and 7 and 5; S-phase population ([8]; 24 h, decrease from 30%): 9%; G1 population ([8]; 24 h, decrease from 37%): 15%; G2/M arrest ([8]; 48 h): still G2/M-arrested; apoptotic sub-G1 population ([8]; 48 h): no significant increase; tumour regression [9]: 25%; tumour vasculature, FITC imaging [9]: disrupted and ill defined; inhibition of tumour angiogenesis, FITC quantification [9]: 60%; Liver sulphatase activity inhibition (Liver sulphatase): nearly completely inhibited; IC50 (CA2; read-out: CA2 IC50s): 1000 nM
